According to ChEMBL document CHEMBL2331190, “Synthesis of 1,4-bis(indolin-1-ylmethyl)benzene derivatives and their structure-activity relationships for the interaction of human carbonic anhydrase isoforms I and II” (Bioorg Med Chem, 2013):
pKi: −log10 of the molar value.

Legend:
[1] = target: Carbonic anhydrase 2 (Homo sapiens, UniProt P00918); assay: Inhibition of human carbonic anhydrase 2 using 4-nitrophenylacetate as substrate after 3 mins by spectrophotometric analysis
[2] = target: Carbonic anhydrase 1 (Homo sapiens, UniProt P00915); assay: Inhibition of human carbonic anhydrase 1 using 4-nitrophenylacetate as substrate after 3 mins by spectrophotometric analysis
Chain of Carbonic anhydrase 1 (P00915 whole entry): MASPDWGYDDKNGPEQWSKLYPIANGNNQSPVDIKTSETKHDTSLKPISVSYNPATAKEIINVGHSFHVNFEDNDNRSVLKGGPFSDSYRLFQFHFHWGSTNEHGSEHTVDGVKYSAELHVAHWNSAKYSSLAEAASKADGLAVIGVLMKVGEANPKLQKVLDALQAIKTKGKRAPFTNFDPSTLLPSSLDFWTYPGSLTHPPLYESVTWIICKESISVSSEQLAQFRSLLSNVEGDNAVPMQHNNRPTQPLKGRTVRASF

Row | Compound | pKi [1] | pKi [2]
1 | c1ccc2c(c1)c1c(n2Cc2ccc(Cn3c4c(c5ccccc53)CCC4)cc2)CCC1 | 6.77 | 4.37
2 | c1ccc2c(c1)c1c(n2Cc2ccc(Cn3c4c(c5ccccc53)CCCC4)cc2)CCCC1 | 6.60 | 4.41
3 | c1ccc2c(c1)c1c(n2Cc2ccc(Cn3c4c(c5ccccc53)CCCCC4)cc2)CCCCC1 | 6.54 | 4.38
